How the values were obtained:
human L-SIGN = target: T1, human L-SIGN (Homo sapiens, UniProt Q9H2X3); assay: Flow cytometry of Spike/Fc binding to L-SIGN-expressing HEK293T cells; details: EGTA 1 mM
T1 construct: host or cells: HEK293T
T1 sequence (Q9H2X3 1-399): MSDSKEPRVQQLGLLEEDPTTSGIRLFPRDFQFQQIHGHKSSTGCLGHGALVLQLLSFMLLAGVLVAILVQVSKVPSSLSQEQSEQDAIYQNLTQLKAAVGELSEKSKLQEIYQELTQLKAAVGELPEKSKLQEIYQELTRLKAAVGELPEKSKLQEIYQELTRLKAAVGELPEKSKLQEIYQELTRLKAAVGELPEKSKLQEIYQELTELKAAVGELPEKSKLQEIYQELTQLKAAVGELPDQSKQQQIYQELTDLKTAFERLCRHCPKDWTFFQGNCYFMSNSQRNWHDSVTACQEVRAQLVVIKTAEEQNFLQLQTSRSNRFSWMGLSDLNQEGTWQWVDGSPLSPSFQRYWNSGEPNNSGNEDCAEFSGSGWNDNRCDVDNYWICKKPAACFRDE

SARS-CoV-2 spike protein = target: T2, SARS-CoV-2 spike protein (Severe acute respiratory syndrome coronavirus 2, UniProt P0DTC2); format: binding
T2 construct: host or cells: HEK293T

[1] = system: high-mannose type N-glycans on spike protein-expressing HEK293T cells; assay: Flow cytometry of GNL lectin binding to spike protein-expressing HEK293T cells; format: cell-based; details: spike protein-expressing HEK293T cells treated with kifunensine 10 μM, 48 h
[2] = system: SARS-CoV-2-type pseudo-typed virus (CoV2-type); format: cell-based
[3] = system: VSVG-type pseudo-typed virus; format: cell-based

Row | Compound | blocking of the interaction of Spike/Fc with L-SIGN (human L-SIGN) | inhibition of L-SIGN/Fc binding to spike protein-expressing HEK293T cells (SARS-CoV-2 spike protein) | effect of treatment on binding of spike protein to GNL [1] | effect of treatment on binding of spike protein to L-SIGN/Fc (SARS-CoV-2 spike protein) | blocking of L-SIGN-mediated CoV2-type infection (% infection efficiency) [2] | blocking of control VSVG-type infection (% infection efficiency) [3]
1 | O=C(O)CN(CCOCCOCCN(CC(=O)O)CC(=O)O)CC(=O)O [EGTA] | blocked | inhibited | – | – | – | –
2 | O=C1N[C@@H]2[C@@H](O)[C@@H](O)[C@H](O)[C@@H](CO)N2C1=O [Kifunensine] | – | – | enhanced | enhanced | – | –
3 | mannan | – | inhibited | – | – | dose-dependently blocked | but not control VSVG-type infection

Reference: US20220125878A1, “Compositions and Methods for Preventing the Interaction Between SARS-COV-2 and L-Sign” (priority 2020, published 2022)
